Holding throughout (type): in vivo
For one assay, the system named is Helicoverpa armigera. The assay is described as follows: Mortality Test for Helicoverpa armigera (Comparative Test). Particulars: in Brassica oleracea, 144 h. The method, then:
10% emulsifiable concentrates of the compound of the present invention and a comparative compound were diluted with water containing a spreader to prepare drug solutions in a predetermined concentration. In each of the drug solutions, a leaf of cabbage was immersed for about 10 seconds and was air-dried and put into a petri dish. In the petri dish, seven 3 instar larvae of Helicoverpa armigera per petri dish were released and the petri dish was capped with a lid having a pore and stored in a thermostat room of 25° C. After 2 days of the treatment, an artificial fertilizer (1 cm^3) was added into the petri dish. The number of killed larvae after 6 days was measured and the mortality was calculated from the calculation formula: Mortality (%)=(number of killed insect/number of released insect)×100. Here, the test was carried out on the duplicate samples.

For another assay, the system named is Plutella xylostella. The assay is described as follows: whole plant or invertebrate. The settings on record: in Brassica oleracea, 144 h. As for the experimental part: (§1) A 10% emulsifiable concentrate of the compound of the present invention (depending on the type of the compound, a 10% wettable powder was subjected to the test) was diluted with water containing a spreader to prepare a drug solution in a concentration of 10 ppm. In this drug solution, a leaf of cabbage was immersed for about 10 seconds and was air-dried and then put into a petri dish. In the petri dish, five 2 instar larvae of Plutella xylostella per petri dish were released and the petri dish was capped and stored in a thermostatic room of 25° C. The number of killed larvae after 6 days was measured and the mortality was calculated from the following calculation formula: Mortality (%)=(number of killed insect/number of released insect)×100. Here, the test was carried out on the duplicate samples.

A further assay has as its system Spodoptera litura. The assay can be described thus: whole plant or invertebrate. The settings on record: in Brassica oleracea, 144 h. The method, then: as §1, with “Spodoptera litura” for “Plutella xylostella”, “same” for “following”, “formula as that in Test Example 1.” for “formula: Mortality (%)=(number of killed insect/number of released insect)×100.”
The test system of a further assay is Spodoptera exigua. The assay can be described thus: Mortality Test for Spodoptera exigua. Particulars: in Brassica oleracea, 144 h. As for the experimental part: as §1, with “of 100” for “of 10”, “of Spodoptera exigua” for “of Plutella xylostella”, “the same” for “the following”, “calculation formula as that in Test Example 1.” for “calculation formula: Mortality (%)=(number of killed insect/number of released insect)×100.”

For another assay, the system named is Tetranychus urticae. The assay can be described thus: whole plant or invertebrate. The settings on record: in Phaseolus vulgaris, 144 h. The method, then: (§2) In a styrol cup having an inner diameter of 7 cm, a wet filtration paper was laid and on the paper, a leaf of kidney bean cut out so as to have the same diameter as the inner diameter of the cup was laid, followed by inoculating ten larvae of Tetranychus urticae per leaf with the leaf. A 10% emulsifiable concentrate of the compound of the present invention (depending on the type of the compound, a 10% wettable powder was subjected to the test) was diluted with water containing a spreader to prepare a drug solution in a concentration of 500 ppm. The drug solution was sprayed using a rotary spray tower in an amount of 2.5 mL per styrol cup, and the cup was capped and stored in a thermostatic room of 25° C. The number of killed larvae after 6 days was measured and the mortality was calculated from the same calculation formula as that in Test Example 1. Here, the test was carried out on the duplicate samples.

Another assay deals with Nilaparvata lugens. The assay can be described thus: whole plant or invertebrate. Particulars: in Oryza sativa, 144 h. The method, then: A 10% emulsifiable concentrate of the compound of the present invention (depending on the type of the compound, a 10% wettable powder was subjected to the test) was diluted with water containing a spreader to prepare a drug solution in a concentration of 500 ppm. In this drug solution, a leaf sheath of rice was immersed for about 10 seconds and was air-dried and then put into a test tube. In the test tube, five 2 instar larvae of Nilaparvata lugens per test tube were released and the test tube was capped with a sponge and stored in a thermostatic room of 25° C. The number of killed larvae after 6 days was measured and the mortality was calculated from the same calculation formula as that in Test Example 1. Here, the test was carried out on the duplicate samples.

In a further assay the test system is Homona magnanima. The assay can be described thus: Mortality Test for Homona magnanima. Particulars: in Brassica oleracea, 144 h. As for the experimental part:
A 10% emulsifiable concentrate of the compound of the present invention (depending on the type of the compound, a 10% wettable powder was subjected to the test) was diluted with water containing a spreader to prepare a drug solution in a concentration of 100 ppm. In this drug solution, a leaf of cabbage was immersed for about 10 seconds and was air-dried and then put into a petri dish. In the petri dish, five 2 instar larvae of Homona magnanima per petri dish were released and the petri dish was capped and stored in a thermostatic room of 25° C. The number of killed larvae after 6 days was measured and the mortality was calculated from the same calculation formula as that in Test Example 1. Here, the test was carried out on the duplicate samples.

The subject of assay [1] is Frankliniella occidentalis. The assay can be described thus: whole plant or invertebrate. Particulars: in Phaseolus vulgaris, 48 h. The method, then: as §2, with “ten 1 instar” for “ten”, “Frankliniella occidentalis” for “Tetranychus urticae”, “2” for “6”
Another assay concerns Myzus persicae. The assay is described as follows: whole plant or invertebrate. Particulars: in Brassica oleracea, 144 h. The method, then:
In a glass petri dish having an inner diameter of 3 cm, a wet absorbent cotton was laid and on the cotton, a leaf of cabbage cut out so as to have the same diameter as the inner diameter of the petri dish was laid, followed by releasing four apterous imagines of Myzus persicae on the leaf. After one day, a 10% emulsifiable concentrate of the compound of the present invention (depending on the type of the compound, a 10% wettable powder was subjected to the test) was diluted with water containing a spreader to prepare a drug solution in a concentration of 500 ppm. The drug solution was sprayed using a rotary spray tower (2.5 mg/cm^2), and the petri dish was capped and stored in a thermostatic room of 25° C. The number of killed imagines after 6 days was measured and the mortality was calculated from the same calculation formula as that in Test Example 1. Here, the test was carried out on the duplicate samples.

The subject of a further assay is Liriomyza trifolii. The assay is described as follows: whole plant or invertebrate. Particulars: in Phaseolus vulgaris, 144 h. The method, then: A 10% emulsifiable concentrate of the compound of the present invention (depending on the type of the compound, a 10% wettable powder was subjected to the test) was diluted with water containing a spreader to prepare a drug solution in a concentration of 500 ppm. In this drug solution, a leaf of kidney bean which was cut out to a diameter of 7 cm, on which Liriomyza trifolii laid eggs (10 eggs/leaf) was immersed for about 10 seconds and was air-dried and then laid on a wet filtration paper laid in a styrol cup having an inner diameter of 7 cm. The styrol cup was capped and stored in a thermostatic room of 25° C. The number of killed larvae after 6 days was measured and the mortality was calculated from the same calculation formula as that in Test Example 1. Here, the test was carried out on the duplicate samples.

Our source for the mortality values is US8318757B2, “Substituted isoxazoline compound and pest control agent” (Nissan Chemical Industries, Ltd., priority 2007, dated 2012).

Broadly, the mortality is the percentage killed. Low values mean more survivors, high ones fewer survivors. In the assay on Helicoverpa armigera, `CSCC(=O)NCc1ccc(C2=NOC(c3cc(Cl)cc(Cl)c3)(C(F)(F)F)C2)cc1Cl` (stereo not drawn) [Comparative compound A] yielded a mortality at 1 ppm of 0%, a mortality at 3 ppm of 57.1%, a mortality at 10 ppm of 92.9% and a mortality at 33 ppm of 100%.
On to `CSCC(=O)NC(C)c1ccc(C2=NOC(c3cc(C(F)(F)F)cc(C(F)(F)F)c3)(C(F)(F)F)C2)cc1` (stereo not drawn) [1-001, N-[1-[4-[5-[3,5-bis(trifluoromethyl)phenyl]-5-trifluoromethyl-4,5-dihydroisoxazole-3-yl]phenyl]ethyl]-2-(methylthio)acetamide], for which the mortality at 10 ppm in the assay with Plutella xylostella and with Spodoptera litura was at least 80% throughout. Also, the mortality at 100 ppm in the assay with Spodoptera exigua and with Homona magnanima was at least 80% throughout. Also, the mortality at 500 ppm (in the assay with Tetranychus urticae; with Nilaparvata lugens; in assay [1]; with Myzus persicae) was at least 80% each time.
Consider `C[S+]([O-])C(C(=O)NCc1ccc(C2=NOC(c3cc(C(F)(F)F)cc(C(F)(F)F)c3)(C(F)(F)F)C2)cc1Cl)[S+](C)[O-]` (stereo not drawn) [1-211, N-[4-[5-[3,5-bis(trifluoromethyl)phenyl]-5-trifluoromethyl-4,5-dihydroisoxazole-3-yl]-2-chlorophenyl]methyl-2,2-bis(methylsulfinyl)acetamide], for which the mortality at 100 ppm with Plutella xylostella, in the assay on Spodoptera litura and in the assay with Tetranychus urticae was at least 80% each time. This molecule also yielded a mortality at 500 ppm in the assay with Liriomyza trifolii of at least 80%.
With `COCSCC(=O)NCc1ccc(C2=NOC(c3cc(Cl)c(Cl)c(Cl)c3)(C(F)(F)F)C2)cc1Cl` (stereo not drawn) [1-030, N-[2-chloro-4-[5-(3,4,5-trichlorophenyl)-5-trifluoromethyl-4,5-dihydroisoxazole-3-yl]phenyl]methyl-2-(methoxymethylthio)acetamide], the mortality at 100 ppm in the assay on Plutella xylostella and with Spodoptera litura was at least 80% each time.
On to `CCSC(C(=O)NCc1ccc(C2=NOC(c3cc(C(F)(F)F)cc(C(F)(F)F)c3)(C(F)(F)F)C2)cc1Cl)S(=O)(=O)CC` (stereo not drawn) [1-225, N-[4-[5-[3,5-bis(trifluoromethyl)phenyl]-5-trifluoromethyl-4,5-dihydroisoxazole-3-yl]-2-chlorophenyl]methyl-2-ethylsulfonyl-2-(ethylthio)acetamide], for which the mortality at 100 ppm with Plutella xylostella and in the assay on Spodoptera litura was at least 80% each time. In addition, the mortality at 500 ppm in the assay on Tetranychus urticae and in the assay on Myzus persicae was at least 80% in each case.
Consider `CS(CC(=O)NCc1ccc(C2=NOC(c3cc(Cl)c(Cl)c(C(F)(F)F)c3)(C(F)(F)F)C2)cc1Br)=NC#N` (stereo not drawn) [1-103, N-[2-bromo-4-[5-[3,4-dichloro-5-(trifluoromethyl)phenyl]-5-trifluoromethyl-4,5-dihydroisoxazole-3-yl]phenyl]methyl-2-[N-(cyano)methylsulfinimidoyl]acetamide], for which the mortality at 100 ppm with Plutella xylostella and in the assay with Spodoptera litura was at least 80% in each case.
Regarding `CCSC(C(=O)NCc1ccc(C2=NOC(c3cc(C(F)(F)F)cc(C(F)(F)F)c3)(C(F)(F)F)C2)cc1Cl)[S+]([O-])CC` (stereo not drawn) [1-220, N-[4-[5-[3,5-bis(trifluoromethyl)phenyl]-5-trifluoromethyl-4,5-dihydroisoxazole-3-yl]-2-chlorophenyl]methyl-2-ethylsulfinyl-2-(ethylthio)acetamide], the mortality at 100 ppm in the assay with Plutella xylostella, in the assay with Spodoptera litura, with Tetranychus urticae, with Homona magnanima and with Myzus persicae was at least 80% in each case. For the same molecule, in the assay on Liriomyza trifolii, the mortality at 500 ppm is at least 80%.
As to `CCS(=N)(=O)CC(=O)NCc1ccc(C2=NOC(c3cc(C(F)(F)F)cc(C(F)(F)F)c3)(C(F)(F)F)C2)cc1Cl` (stereo not drawn) [1-173, N-[2-chloro-4-[5-[3,5-bis(trifluoromethyl)phenyl]-5-trifluoromethyl-4,5-dihydroisoxazole-3-yl]phenyl]methyl-2-(ethylsulfonimidoyl)acetamide], the mortality at 10 ppm with Plutella xylostella and in the assay on Spodoptera litura was at least 80% each time. In addition, the mortality at 500 ppm (with Tetranychus urticae; in assay [1]; in the assay with Liriomyza trifolii) was at least 80% each time.
`O=C(CSCC(F)(F)F)NCc1ccc(C2=NOC(c3cc(Cl)c(Cl)c(Cl)c3)(C(F)(F)F)C2)cc1Cl` (stereo not drawn) [1-029, N-[2-chloro-4-[5-(3,4,5-trichlorophenyl)-5-trifluoromethyl-4,5-dihydroisoxazole-3-yl]phenyl]methyl-2-(2,2,2-trifluoroethylthio)acetamide]: the mortality at 10 ppm with Plutella xylostella and with Spodoptera litura was at least 80% throughout. For the same molecule, the mortality at 500 ppm (in the assay on Tetranychus urticae; in the assay with Nilaparvata lugens; in assay [1]; in the assay with Myzus persicae) was at least 80% in each case. Further, the mortality at 100 ppm with Homona magnanima was at least 80%.
